Reference: patent US20130143929A1, “FUNGICIDAL IMIDAZOLES” (EI DU PONT DE NEMOURS AND COMPANY, priority 2010, published 2013)
Marks after values point to notes of the source that are not given here.

Columns and labels:
Type in all cases: in vivo
[1] = system: Blumeria graminis f. sp. tritici (also known as Erysiphe graminis f. sp. tritici, the causal agent of wheat powdery mildew); assay: Test D: wheat powdery mildew, preventive spray on wheat seedlings, visual disease rating; conditions: for Test D rating (100 = 100% disease control, 0 = no disease control relative to the controls): wheat powdery mildew, preventive spray on wheat seedlings; for Test D rating (% disease control, wheat powdery mildew): 100 = 100% disease control, 0 = no control
Outline: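 Preventive test: seedlings sprayed to run-off and inoculated with powdery mildew spores one day later. Suspensions were made in 50/50 acetone/water with 250 ppm Trem 014 surfactant (200 ppm equals 800 g/ha). Visual ratings after 8 days at 20 °C give percent disease control versus controls.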

[2] = system: Puccinia recondite f. sp. tritici (the causal agent of wheat leaf rust); assay: Test A: wheat leaf rust, preventive spray on wheat seedlings, visual disease rating; conditions: for Test A rating (100 = 100% disease control, 0 = no disease control relative to the controls): wheat leaf rust, preventive spray on wheat seedlings; for Test A rating (% disease control, wheat leaf rust): 100 = 100% disease control, 0 = no control
Outline: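 This was a preventive test: Puccinia recondite f. sp. tritici inoculum was applied one day after compound spray to run-off. Test suspensions were made in 50/50 acetone/water with 250 ppm surfactant, at 200 ppm (800 g/ha equivalent) or 40 ppm. Visual ratings of % disease control relative to controls were made after 24 h of saturated humidity and 7 growth-chamber days, all at 20° C.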

[3] = system: Botrytis cinerea (the causal agent of tomato Botrytis); assay: Test C: tomato Botrytis, preventive spray on tomato seedlings, visual disease rating; conditions: for Test C rating (100 = 100% disease control, 0 = no disease control relative to the controls): tomato Botrytis, preventive spray on tomato seedlings; for Test C rating (% disease control, tomato Botrytis): 100 = 100% disease control, 0 = no control
Outline: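 Preventive test: B. cinerea spore inoculation one day after tomato seedlings were sprayed to run-off with compound suspended in 50/50 acetone–water plus 250 ppm surfactant. Plants held 48 h at 20° C in saturated air, then 3 days at 24° C; visual ratings scored 100 (full control) to 0 versus controls; some entries used 40 ppm.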

[4] = system: Septoria tritici (the causal agent of wheat leaf blotch); assay: Test B: wheat leaf blotch, preventive spray on wheat seedlings, visual disease rating; conditions: for Test B rating (100 = 100% disease control, 0 = no disease control relative to the controls): wheat leaf blotch, preventive spray on wheat seedlings; for Test B rating (% disease control, wheat leaf blotch): 100 = 100% disease control, 0 = no control
Outline: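 Preventive test: Septoria tritici spores applied one day after run-off spraying of seedlings (200 ppm equals 800 g/ha; some tests 40 ppm). After 48 h at 24 °C saturated atmosphere and 19 days at 20 °C, disease scored visually as % control relative to untreated plants.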

[5] = no asterisk (standard test suspension concentration, not 40 ppm)
[6] = asterisk: 40 ppm test suspension

Structure (SMILES)	Test D rating (100 = 100% disease control, 0 = no disease control relative to the controls) [1, 5] [%]	Test A rating (100 = 100% disease control, 0 = no disease control relative to the controls) [2, 5] [%]	Test C rating (100 = 100% disease control, 0 = no disease control relative to the controls) [3, 5] [%]	Test B rating (100 = 100% disease control, 0 = no disease control relative to the controls) [4, 5] [%]	Test D rating (100 = 100% disease control, 0 = no disease control relative to the controls) [1, 6]	Test A rating (100 = 100% disease control, 0 = no disease control relative to the controls) [2, 6]	Test C rating (100 = 100% disease control, 0 = no disease control relative to the controls) [3, 6]	Test B rating (100 = 100% disease control, 0 = no disease control relative to the controls) [4, 6]	also measured
Cc1cc(F)ccc1C(O)c1cnc(C)n1-c1ccc(F)cc1Br (stereo not drawn) [compound 138]	0	89	0	28	–	–	–	–	–
Cc1ncc(C(O)c2c(F)cc(Cl)cc2F)n1-c1ccc(F)cc1Br (stereo not drawn) [compound 305]	–	–	–	–	0* %	9* %	21* %	17* %	–
COc1ccc(C(O)c2c(Br)nc(C)n2-c2c(F)cccc2F)c(Cl)c1 (stereo not drawn) [compound 144]	–	–	–	–	99* %	100* %	100* %	100* %	–
Cc1nc(C)n(-c2c(F)cc(F)cc2F)c1C(O)c1ccc(F)cc1Cl (stereo not drawn) [compound 169]	–	–	–	–	0* %	100* %	40* %	100* %	–
OC(c1ccc(F)cc1F)c1c(Cl)nc(Cl)n1-c1c(F)cc(F)cc1Cl (racemic) [compound 40]	100	100	100	100	–	–	–	–	–
Cc1nc(Br)c(C(O)c2ccc(Cl)cc2F)n1-c1c(F)cccc1F (stereo not drawn) [compound 179]	–	–	–	–	43* %	68* %	78* %	100* %	–
COc1cc(F)c(-n2c(C)nc(Br)c2C(O)c2ccc(F)cc2Cl)c(F)c1 (stereo not drawn) [compound 392]	–	–	–	–	–	–	–	–	Test D rating (% disease control, wheat powdery mildew) [1, 6]: 0* %; Test A rating (% disease control, wheat leaf rust) [2, 6]: 99* %; Test C rating (% disease control, tomato Botrytis) [3, 6]: 0* %; Test B rating (% disease control, wheat leaf blotch) [4, 6]: 100* %
Cc1nc(Cl)c(C(O)c2ccc(F)cc2Br)n1-c1c(F)cccc1F (stereo not drawn) [compound 383]	–	–	–	–	–	–	–	–	Test D rating (% disease control, wheat powdery mildew) [1, 6]: 92* %; Test A rating (% disease control, wheat leaf rust) [2, 6]: 100* %; Test C rating (% disease control, tomato Botrytis) [3, 6]: 99* %; Test B rating (% disease control, wheat leaf blotch) [4, 6]: 100* %
OC(c1ccc(Cl)cc1)c1c(Cl)nc(Cl)n1-c1ccc(Cl)cc1Cl (single isomer, unassigned) [compound 86]	56	96	73	100	–	–	–	–	–
COc1ccc(C(O)c2c(Br)nc(C)n2-c2ccc(F)cc2Br)c(Cl)c1 (stereo not drawn) [compound 324]	–	–	–	–	69* %	100* %	80* %	94* %	–
COc1ccc(C(O)c2c(Br)nc(Cl)n2-c2ccc(F)cc2Cl)c(Cl)c1 (stereo not drawn) [compound 358]	–	–	–	–	99* %	100* %	100* %	100* %	–
Cc1ncc(C(O)c2ccc(F)cc2Br)n1-c1c(F)cc(F)cc1Br (stereo not drawn) [compound 94]	56	100	99	100	–	–	–	–	–
